Reference: ChEMBL document CHEMBL1130083, “Discovery of prototype peptidomimetic agonists at the human melanocortin receptors MC1R and MC4R” (J Med Chem, 1997)

How the values were obtained:
MCR [1] = experiment: Effective concentration was measured against frog skin MCR cells at 10 e-4 10 e-12 M Concentration.; format: functional, cell-based; conditions: Anura
Melanocortin receptor 5 = Melanocortin receptor 5 (Homo sapiens, UniProt P33032); experiment: Displacement of [125I]NDP-MSH from Melanocortin 5 receptor at 10 uM
Melanocortin receptor 5, sequence (P33032 whole entry): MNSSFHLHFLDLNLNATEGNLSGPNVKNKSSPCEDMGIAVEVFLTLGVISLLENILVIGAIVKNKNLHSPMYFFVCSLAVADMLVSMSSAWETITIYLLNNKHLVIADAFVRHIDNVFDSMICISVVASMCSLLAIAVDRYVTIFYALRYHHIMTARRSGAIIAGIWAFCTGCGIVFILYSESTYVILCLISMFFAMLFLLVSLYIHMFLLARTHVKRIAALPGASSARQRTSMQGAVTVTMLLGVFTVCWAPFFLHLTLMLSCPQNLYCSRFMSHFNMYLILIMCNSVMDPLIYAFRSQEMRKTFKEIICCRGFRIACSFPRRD

Melanocortin receptor 3 = Melanocortin receptor 3 (Homo sapiens, UniProt P41968); experiment: Displacement of [125I]NDP-MSH from Melanocortin 3 receptor at 10 uM
Melanocortin receptor 3, sequence (P41968 whole entry): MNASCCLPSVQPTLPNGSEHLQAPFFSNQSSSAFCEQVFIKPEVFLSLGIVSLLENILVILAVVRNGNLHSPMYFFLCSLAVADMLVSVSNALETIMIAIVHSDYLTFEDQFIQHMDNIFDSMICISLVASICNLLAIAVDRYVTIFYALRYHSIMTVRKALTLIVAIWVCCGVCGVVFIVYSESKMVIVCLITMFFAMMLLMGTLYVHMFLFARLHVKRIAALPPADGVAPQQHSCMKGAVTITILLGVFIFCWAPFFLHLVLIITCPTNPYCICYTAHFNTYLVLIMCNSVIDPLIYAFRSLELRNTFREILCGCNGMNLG

[2] = target: T1, Melanocyte-stimulating hormone receptor (Homo sapiens, UniProt Q01726); experiment: Displacement of [125I]NDP-MSH from Melanocortin 1 receptor at 10 uM
T1 sequence (Q01726 whole entry): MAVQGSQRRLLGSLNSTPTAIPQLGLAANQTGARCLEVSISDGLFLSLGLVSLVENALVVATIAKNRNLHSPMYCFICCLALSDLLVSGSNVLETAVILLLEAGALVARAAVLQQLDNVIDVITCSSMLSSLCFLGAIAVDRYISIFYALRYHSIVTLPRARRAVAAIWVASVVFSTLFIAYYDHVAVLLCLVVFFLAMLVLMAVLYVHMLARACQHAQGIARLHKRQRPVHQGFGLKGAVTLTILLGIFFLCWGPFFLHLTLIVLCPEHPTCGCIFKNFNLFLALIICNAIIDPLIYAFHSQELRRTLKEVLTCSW

[3] = target: T1, Melanocyte-stimulating hormone receptor; experiment: effective concentration of peptide at 50% maximal cAMP accumulation on Melanocortin 1 receptor; format: functional
Melanocortin receptor 4 = Melanocortin receptor 4 (Homo sapiens, UniProt P32245); experiment: Displacement of [125I]NDP-MSH from Melanocortin 4 receptor at 10 uM
Melanocortin receptor 4, sequence (P32245 whole entry): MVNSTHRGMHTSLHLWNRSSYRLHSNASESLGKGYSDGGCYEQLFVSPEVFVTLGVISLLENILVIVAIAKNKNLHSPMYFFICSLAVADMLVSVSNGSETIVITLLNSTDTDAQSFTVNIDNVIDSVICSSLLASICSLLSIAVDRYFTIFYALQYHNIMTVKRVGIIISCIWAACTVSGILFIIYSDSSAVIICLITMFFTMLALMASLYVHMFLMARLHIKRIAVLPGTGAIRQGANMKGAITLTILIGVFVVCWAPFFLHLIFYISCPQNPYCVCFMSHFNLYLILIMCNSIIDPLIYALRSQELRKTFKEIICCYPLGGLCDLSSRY

MCR [4] = experiment: Effective concentration was measured against frog skin(MCR) cells at 10 e-4 10 e-12 M Concentration.; format: functional, cell-based; conditions: Anura

| EC50 (MCR [1]) [µM] | IC50 (Melanocortin receptor 5) [µM] | IC50 (Melanocortin receptor 3) [µM] | IC50 [2] [µM] | EC50 [3] [µM] | IC50 (Melanocortin receptor 4) [µM] | EC50 (MCR [4]) [µM] | Structure (SMILES) |
| --- | --- | --- | --- | --- | --- | --- | --- |
| 10 | > 10 | > 10 | > 10 |  |  |  | CC(=O)N[C@@H](Cc1c[nH]cn1)C(=O)N[C@H](Cc1ccccc1)C(=O)N[C@H](CCCN=C(N)N)C(=O)N[C@@H](Cc1c[nH]c2ccccc12)C(N)=O |
| 0.2 | > 10 | > 10 | 0.615 | 0.228 |  |  | CC(=O)N[C@@H](Cc1cnc[nH]1)C(=O)N[C@H](Cc1ccccc1)C(=O)N[C@@H](CCCNC(=N)N)C(=O)N[C@@H](Cc1c[nH]c2ccccc12)C(N)=O |
| 2 | > 10 | > 10 | 6.35 | 1.43 |  |  | CC(=O)N[C@@H](Cc1c[nH]cn1)C(=O)N[C@@H](Cc1ccccc1)C(=O)N[C@@H](CCCN=C(N)N)C(=O)N[C@H](Cc1c[nH]c2ccccc12)C(N)=O |
| 5.5 | > 10 | > 10 | > 10 |  | > 10 |  | CC(=O)N[C@H](Cc1ccccc1)C(=O)N[C@H](CCCN=C(N)N)C(=O)N[C@@H](Cc1c[nH]c2ccccc12)C(N)=O |
| 1.9 | > 10 | > 10 | > 10 |  |  |  | CC(=O)N[C@@H](Cc1c[nH]cn1)C(=O)N[C@H](Cc1ccccc1)C(=O)N[C@H](CCCN=C(N)N)C(=O)N[C@H](Cc1c[nH]c2ccccc12)C(N)=O |
| 4.2 | > 10 | > 10 | > 10 |  | > 10 |  | CC(=O)NCC(=O)N[C@H](Cc1ccccc1)C(=O)N[C@@H](CCCN=C(N)N)C(=O)N[C@H](Cc1c[nH]c2ccccc12)C(N)=O |
|  | > 10 | > 10 | > 10 |  | 2.08 | 30 | CC(=O)N[C@H](Cc1ccccc1)C(=O)N[C@@H](CCCN=C(N)N)C(=O)N[C@@H](Cc1c[nH]c2ccccc12)C(N)=O |
|  | > 10 | > 10 | > 10 |  | 9.16 | 1.5 | CC(=O)N[C@H](Cc1ccccc1)C(=O)N[C@@H](CCCNC(=N)N)C(=O)N[C@H](Cc1c[nH]c2ccccc12)C(N)=O |
| > 100 | > 10 | > 10 | > 10 |  | > 10 |  | CC(=O)N[C@@H](Cc1ccccc1)C(=O)N[C@H](CCCN=C(N)N)C(=O)N[C@H](Cc1c[nH]c2ccccc12)C(N)=O |
| > 100 | > 10 | > 10 | > 10 |  | > 10 |  | CC(=O)N[C@H](Cc1ccccc1)C(=O)N[C@H](CCCNC(=N)N)C(=O)N[C@H](Cc1c[nH]c2ccccc12)C(N)=O |
| > 100 | > 10 | > 10 | > 10 |  | > 10 |  | CC(=O)N[C@@H](Cc1ccccc1)C(=O)N[C@@H](CCCNC(=N)N)C(=O)N[C@H](Cc1c[nH]c2ccccc12)C(N)=O |
